Reference: patent publication US20230130766A1 (SALK INSTITUTE FOR BIOLOGICAL STUDIES, priority 2020, published 2023)

Each compound was assayed against T1, ULK1 (Homo sapiens, UniProt O75385) (assay: ULK1 inhibition assay). Settings: * = tested as a mixture of regioisomers.
T1 sequence (O75385 1-1050): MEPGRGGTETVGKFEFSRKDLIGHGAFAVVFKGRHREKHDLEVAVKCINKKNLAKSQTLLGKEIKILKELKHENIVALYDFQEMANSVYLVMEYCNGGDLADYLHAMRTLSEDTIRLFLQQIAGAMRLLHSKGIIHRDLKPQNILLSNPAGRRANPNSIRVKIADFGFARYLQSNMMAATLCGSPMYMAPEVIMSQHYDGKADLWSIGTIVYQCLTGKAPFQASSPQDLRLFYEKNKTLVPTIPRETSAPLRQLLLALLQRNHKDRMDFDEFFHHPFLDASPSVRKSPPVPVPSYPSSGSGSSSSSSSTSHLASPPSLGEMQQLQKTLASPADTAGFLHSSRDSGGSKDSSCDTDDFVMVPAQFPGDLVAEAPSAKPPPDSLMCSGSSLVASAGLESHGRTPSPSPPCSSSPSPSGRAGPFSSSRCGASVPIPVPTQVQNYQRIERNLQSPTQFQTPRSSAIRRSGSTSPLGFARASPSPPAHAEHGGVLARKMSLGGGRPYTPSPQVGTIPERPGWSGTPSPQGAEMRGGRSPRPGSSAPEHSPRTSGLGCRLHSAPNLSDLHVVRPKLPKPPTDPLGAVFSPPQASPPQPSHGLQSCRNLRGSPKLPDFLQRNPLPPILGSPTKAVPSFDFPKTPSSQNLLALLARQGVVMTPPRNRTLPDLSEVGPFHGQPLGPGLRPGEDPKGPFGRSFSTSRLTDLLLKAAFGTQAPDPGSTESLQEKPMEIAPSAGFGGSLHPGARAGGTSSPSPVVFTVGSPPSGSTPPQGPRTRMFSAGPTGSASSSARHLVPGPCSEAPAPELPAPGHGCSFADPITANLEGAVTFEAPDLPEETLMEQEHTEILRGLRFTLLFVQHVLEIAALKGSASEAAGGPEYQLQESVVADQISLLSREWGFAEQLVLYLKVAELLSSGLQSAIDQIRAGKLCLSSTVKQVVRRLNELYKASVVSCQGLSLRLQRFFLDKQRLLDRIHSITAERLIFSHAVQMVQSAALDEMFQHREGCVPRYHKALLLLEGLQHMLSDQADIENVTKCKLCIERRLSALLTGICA
Assay type: biochemical

Structure (SMILES) | IC50
NC(=O)c1cccc(Nc2ncc(C(F)(F)F)c(Nc3ccc4c(c3)OCO4)n2)c1 [138*] | < 200 nM
FC(F)(F)c1cnc(Nc2ccc(-n3cccc3)cc2)nc1Nc1ccc2c(c1)OCO2 [139*] | < 200 nM
FC(F)(F)c1cnc(Nc2ccc3c(c2)CCC3)nc1Nc1ccc2c(c1)OCO2 [140*] | < 200 nM
COc1ccc(Nc2ncc(C(F)(F)F)c(Nc3ccc4c(c3)OCO4)n2)cc1 [144*] | < 200 nM
FC(F)(F)c1cnc(Nc2cccc(Cl)c2Cl)nc1Nc1ccc2c(c1)OCO2 [147*] | > 2000 nM
FC(F)(F)c1cnc(Nc2cccc(Oc3ccccc3)c2)nc1Nc1ccc2c(c1)OCO2 [149*] | > 2000 nM
O=C1CCc2cc(Nc3ncc(C(F)(F)F)c(Nc4ccccc4)n3)ccc2N1 [157*] | < 200 nM
CNC(=O)c1ccccc1Nc1nc(Nc2ccc3c(c2)CCC(=O)N3)ncc1Cl [Compound 19] | < 200 nM
CNC(=O)c1ccccc1Nc1nc(Nc2ccc3c(c2)CCC(=O)N3)ncc1Br [Compound 20] | < 200 nM
CNC(=O)c1ccccc1Nc1nc(Nc2ccc3c(c2)CC(=O)N3)ncc1Cl [Compound 21] | < 200 nM
COc1cc(Nc2ncc(Br)c(Nc3ccccn3)n2)cc(OC)c1OC [Compound 22] | < 200 nM
COc1ccc(C)c(Nc2ncc(Cl)c(Nc3ccc(OC)nc3)n2)c1 [Compound 34] | > 2000 nM
CNC(=O)c1ccccc1Nc1nc(Nc2ccc(N3CCOCC3)cc2OC)ncc1C(F)(F)F [Compound 39] | < 200 nM
COc1ccc(C)c(Nc2ncc(Cl)c(NCc3cccc(S(C)(=O)=O)c3)n2)c1 [Compound 41] | > 2000 nM
CNC(=O)c1ccccc1Nc1nc(Nc2cc(OC)ccc2C)ncc1C(F)(F)F [Compound 42] | < 200 nM
CNC(=O)c1ccccc1Nc1nc(Nc2cccc(OC)c2)ncc1Cl [Compound 44] | < 200 nM
CNC(=O)c1ccccc1Nc1nc(Nc2ccc3c(c2)OCO3)ncc1Cl [Compound 49] | < 200 nM
CNC(=O)c1ccccc1Nc1nc(Nc2ccccc2C)ncc1Cl [Compound 53] | > 2000 nM
COc1ccc(C)c(Nc2ncc(Cl)c(Nc3cccc(CC#N)c3)n2)c1 [Compound 54] | > 2000 nM
CS(=O)(=O)c1cccc(CNc2nc(Nc3ccc4c(c3)CCC(=O)N4)ncc2F)c1 [Compound 56] | > 2000 nM

Structure (SMILES) | IC50
O=C1CCc2cc(Nc3ncc(C(F)(F)F)c(Nc4nccs4)n3)ccc2N1 [Compound 58] | > 2000 nM
CNC(=O)c1ccccc1Nc1ccnc(Nc2cc(OC)c(OC)c(OC)c2)n1 [Compound 60] | < 200 nM
N#CCc1cccc(Nc2nc(Nc3ccc4c(c3)CCC(=O)N4)ncc2C(F)(F)F)c1 [Compound 61] | < 200 nM
O=C1CCc2cc(Nc3ncc(C(F)(F)F)c(SCc4ccccc4)n3)ccc2N1 [Compound 62] | < 200 nM
O=C1CCc2cc(Nc3ncc(C(F)(F)F)c(C#Cc4ccccc4)n3)ccc2N1 [Compound 64] | > 2000 nM
O=C1CCc2cc(Nc3ncc(C(F)(F)F)c(/C=C/c4ccccc4)n3)ccc2N1 [Compound 69] | < 200 nM
O=C1CCc2cc(Nc3ncc(C(F)(F)F)c(-c4ccccc4)n3)ccc2N1 [Compound 72] | > 2000 nM
COc1cc(N2CCOCC2)ccc1Nc1ncc(Br)c(Nc2ccccc2S(=O)(=O)N(C)C)n1 [Compound 80] | < 200 nM
CNC(=O)c1ccccc1Nc1nc(Nc2cc(N3CCOCC3)cc(N3CCOCC3)c2)ncc1C(F)(F)F [Compound 90] | < 200 nM
CNC(=O)c1ccccc1Oc1nc(Nc2cc(OC)c(OC)c(OC)c2)ncc1C(F)(F)F [Compound 92] | < 200 nM
CNC(=O)c1ccccc1Oc1nc(Nc2ccccc2)ncc1C(F)(F)F [Compound 99] | > 2000 nM
CNC(=O)c1ccccc1Oc1nc(Nc2cc(Br)ccc2C)ncc1C(F)(F)F [Compound 100] | > 2000 nM
CNC(=O)c1ccccc1Oc1nc(Nc2ccc(C)c(Br)c2)ncc1C(F)(F)F [Compound 102] | > 2000 nM
CNC(=O)c1ccccc1Oc1nc(Nc2cc(C)ccc2C)ncc1C(F)(F)F [Compound 104] | > 2000 nM
CNC(=O)c1ccccc1Oc1nc(Nc2ccc(OC)cc2)ncc1C(F)(F)F [Compound 105a] | > 2000 nM
COc1ccc(Nc2ncc(C(F)(F)F)c(O)n2)cc1 [Compound 105b] | > 2000 nM
CNC(=O)c1ccccc1Oc1nc(Nc2ccc(C)cc2Cl)ncc1C(F)(F)F [Compound 107] | > 2000 nM
CNC(=O)c1ccccc1Oc1nc(Nc2ccc(Cl)c(Cl)c2)ncc1C(F)(F)F [Compound 108a] | > 2000 nM
Oc1nc(Nc2ccc(Cl)c(Cl)c2)ncc1C(F)(F)F [Compound 108b] | > 2000 nM

More lines, now with the values ahead:

IC50 | Structure (SMILES)
< 200 nM | O=C1CCc2cc(Nc3ncc(C(F)(F)F)c(Nc4ccc5c(c4)OCO5)n3)ccc2N1 [124*]
> 2000 nM | COc1cccc(Nc2nc(Nc3ccc(OC(F)(F)F)c(Cl)c3)ncc2C(F)(F)F)c1 [136*]
200 to 2000 nM | COc1cccc(Nc2nc(Nc3cc4ccccc4cc3O)ncc2C(F)(F)F)c1 [137*]
< 200 nM | CNC(=O)c1ccccc1Nc1nc(Nc2ccc(N3CCOCC3)cc2OC)ncc1Cl [Compound 12]
< 200 nM | CNC(=O)c1ccccc1Nc1nc(Nc2cc(OC)c(OC)c(OC)c2)ncc1Cl [Compound 15]
< 200 nM | CNC(=O)c1ccccc1Nc1nc(Nc2cc(OC)ccc2C)ncc1Cl [Compound 16]
< 200 nM | CNC(=O)c1ccccc1Nc1nc(Nc2cc(OC)ccc2C)ncc1Br [Compound 17]
< 200 nM | CNC(=O)c1ccccc1Nc1nc(Nc2ccc3[nH]ccc3c2)ncc1Br [Compound 23]
< 200 nM | COc1ccc(Nc2nc(Nc3cc(OC)c(OC)c(OC)c3)ncc2Cl)cn1 [Compound 24]
< 200 nM | COc1ccc(Nc2nc(Nc3cc(OC)c(OC)c(OC)c3)ncc2Br)cn1 [Compound 25]
> 2000 nM | COc1ccc(Nc2nc(Nc3ccc(N4CCOCC4)cc3OC)ncc2Cl)cn1 [Compound 27]
< 200 nM | COc1ccc(Nc2nc(Nc3ccc4[nH]ccc4c3)ncc2Br)cn1 [Compound 30]
< 200 nM | COc1cc(Nc2ncc(C(F)(F)F)c(NCc3cccc(S(C)(=O)=O)c3)n2)cc(OC)c1OC [Compound 31]
> 2000 nM | COc1ccc(C)c(Nc2ncc(Br)c(Nc3ccc(OC)nc3)n2)c1 [Compound 35]
> 2000 nM | CNC(=O)c1ccccc1Nc1nc(Nc2cc(OC)c(OC)c(OC)c2)ncc1C(F)(F)F [Compound 36]
< 200 nM | COc1ccc(Nc2nc(Nc3cc(OC)c(OC)c(OC)c3)ncc2C(F)(F)F)cn1 [Compound 37]
> 2000 nM | COc1ccc(Nc2nc(Nc3ccc(N4CCOCC4)cc3OC)ncc2C(F)(F)F)cn1 [Compound 40]

IC50 | Structure (SMILES)
< 200 nM | O=C1CCc2cc(Nc3ncc(C(F)(F)F)c(NCc4ccccc4)n3)ccc2N1 [Compound 43]
> 2000 nM | COc1ccc(C)c(Nc2ncc(Cl)c(Nc3cccc(S(=O)(=O)N(C)C)c3)n2)c1 [Compound 45]
> 2000 nM | COc1ccc(C)c(Nc2ncc(C(F)(F)F)c(NCc3cccc(S(C)(=O)=O)c3)n2)c1 [Compound 50]
< 200 nM | CNC(=O)c1ccccc1Nc1nc(Nc2ccc3c(c2)OCCO3)ncc1Cl [Compound 51]
> 2000 nM | COc1cc(N2CCOCC2)ccc1Nc1ncc(C(F)(F)F)c(NCc2cccc(S(C)(=O)=O)c2)n1 [Compound 52]
> 2000 nM | COc1ccc(C)c(Nc2ncc(Cl)c(Nc3nccc(C)n3)n2)c1 [Compound 55]
< 200 nM | CNC(=O)c1ccccc1Nc1nc(Nc2cc3c(cc2C)OCO3)ncc1Cl [Compound 57]
> 2000 nM | Cc1cnc(Nc2ccc3c(c2)CCC(=O)N3)nc1NCc1cccc(S(C)(=O)=O)c1 [Compound 67]
< 200 nM | CNC(=O)c1ccccc1Nc1nc(Nc2cc(OC)c(OC)c(OC)c2)ncc1/C=C/c1ccccc1 [Compound 71]
< 200 nM | CNC(=O)c1ccccc1Nc1nc(Nc2cc(OC)c(OC)c(OC)c2)ncc1-c1ccccc1 [Compound 73]
< 200 nM | CNC(=O)c1ccccc1Nc1nc(Nc2ccc3c(c2)CCC(=O)N3)ncc1C(F)(F)F [Compound 76]
< 200 nM | O=C1CCc2cc(Nc3ncc(C(F)(F)F)c(OCc4ccccc4)n3)ccc2N1 [Compound 81]
< 200 nM | COc1c(C)cnc(CNc2nc(Nc3ccc4c(c3)CCC(=O)N4)ncc2C(F)(F)F)c1C [Compound 82]
< 200 nM | Cc1cccc(Oc2nc(Nc3ccc4c(c3)CCC(=O)N4)ncc2C(F)(F)F)c1C [Compound 83]
< 200 nM | CNC(=O)c1ccccc1Nc1nc(Nc2ccc3c(c2)CCC(=O)N3)ncc1-c1ccccc1 [Compound 89]
> 2000 nM | CNC(=O)c1ccccc1Oc1nc(Nc2cc(OC)ccc2C)ncc1C(F)(F)F [Compound 101]
> 2000 nM | CNC(=O)c1ccccc1Oc1nc(Nc2ccccc2OC)ncc1C(F)(F)F [Compound 103]
